Structures can show the parent of a compound that is named as a salt.
molecular target: T1, Human AXL (Homo sapiens, UniProt P30530); experiment: Human AXL kinase assay (HTRF KinEase); assay type: biochemical; details: Table 2 Biological Activities, ATP at Km (1.0 μM)
T1 construct: Human AXL (residues 464-885; CarnaBio, 1 ng/ well); purchased CarnaBio
T1 sequence (P30530 464-885 isoform P30530-2): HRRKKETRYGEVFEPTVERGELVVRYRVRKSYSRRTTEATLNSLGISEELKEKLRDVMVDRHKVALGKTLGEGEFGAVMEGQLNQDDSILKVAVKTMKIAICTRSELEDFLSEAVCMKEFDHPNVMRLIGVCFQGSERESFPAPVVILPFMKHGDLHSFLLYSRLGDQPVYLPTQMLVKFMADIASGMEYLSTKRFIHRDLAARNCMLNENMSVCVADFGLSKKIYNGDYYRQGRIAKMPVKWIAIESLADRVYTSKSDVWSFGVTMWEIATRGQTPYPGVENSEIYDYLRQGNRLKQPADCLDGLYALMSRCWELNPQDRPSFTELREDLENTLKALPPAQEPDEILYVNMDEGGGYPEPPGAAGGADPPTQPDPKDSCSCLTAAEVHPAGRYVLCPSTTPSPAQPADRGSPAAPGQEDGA
Procedure: Kinase activity and compound inhibition were investigated using the HTRF® KinEase assay (Cisbio Cat #62TKOPEB) per manufacturer's instructions. In short, compounds were delivered in 300 nL volumes at 10 different concentrations in DMSO (3% final) to empty 384-well assay plates (Corning cat #3824). A mixture of enzyme, 1 μM biotynlated peptide substrate, and buffer in 10 μL volume was added. The assay was started upon the addition of ATP (at Km). The 10 μL reaction was incubated at room temperature. The reaction was stopped upon the addition of detection buffer containing streptavidin-XL665 (5 μL) and TK antibody-Eu3+ (5 μL). After a 60 min incubation at room temperature, the fluorescence at 665 nm and 620 nm was read on an Envision microplate reader (Perkin Elmer). Kinase activity normalized to DMSO (100% activity) and reference compound at 1 μM and (0% activity) was calculated using the fluorescence ratio […]. IC50 values were calculated by nonlinear regression analysis using a 4-parameter logistic curve fit in ActivityBase XE (IDBS).
Human AXL (residues 464-885; CarnaBio, 1 ng/ well) was incubated with enzymatic buffer (Cisbio) supplemented with 5 mM MgCl2, 1 mM DTT, and Supplemental Enzymatic Buffer (SEB; Cisbio). The mixture was added to the pre-plated compounds. The reaction was initiated upon addition of ATP at Km (1.0 μM). The reaction was incubated at room temperature for 50 min and stopped upon the addition of SA-XL665 and TK-antibody both diluted in EDTA-containing kinase detection buffer (Cisbio). The kinase activity was calculated as stated above and the IC50 values were reported.

IC50 | SMILES
≤ 100 nM | COc1cc2nccc(Oc3ccc(NC(=O)c4cccn(-c5ccc(F)cn5)c4=O)cc3F)c2nc1OC [Compound 42, N-[4-[(6,7-Dimethoxy-1,5-naphthyridin-4-yl)oxy]-3-fluorophenyl]-1-(5-fluoropyridin-2-yl)-2-oxopyridine-3-carboxamide]
≤ 100 nM | COc1cc2nccc(Oc3ccc(NC(=O)c4cn(C)c(C)c(-c5ccc(F)cn5)c4=O)cc3)c2nc1OC [Compound 86, N-[4-[(6,7-Dimethoxy-1,5-naphthyridin-4-yl)oxy]phenyl]-5-(5-fluoropyridin-2-yl)-1,6-dimethyl-4-oxopyridine-3-carboxamide]
≤ 100 nM | COc1cnc2c(Oc3ccc(NC(=O)c4c(C)nc(C)c(-c5ccc(F)cn5)c4O)cc3F)ccnc2c1 [Compound 217, N-[3-Fluoro-4-[(7-methoxy-1,5-naphthyridin-4-yl)oxy]phenyl]-5-(5-fluoropyridin-2-yl)-4-hydroxy-2,6-dimethylpyridine-3-carboxamide]

molecular target: T2, AXL (Homo sapiens, UniProt P30530); experiment: AXL autophosphorylation ELISA in A-172 cells; assay type: cell-based; details: Table 3 Cellular Activities, Gas6-stimulated, phospho-AXL ELISA
T2 construct: endogenous in cells; host or cells: A-172 glioblastoma cells (ATCC #CRL-1620)
T2 sequence (P30530 26-894): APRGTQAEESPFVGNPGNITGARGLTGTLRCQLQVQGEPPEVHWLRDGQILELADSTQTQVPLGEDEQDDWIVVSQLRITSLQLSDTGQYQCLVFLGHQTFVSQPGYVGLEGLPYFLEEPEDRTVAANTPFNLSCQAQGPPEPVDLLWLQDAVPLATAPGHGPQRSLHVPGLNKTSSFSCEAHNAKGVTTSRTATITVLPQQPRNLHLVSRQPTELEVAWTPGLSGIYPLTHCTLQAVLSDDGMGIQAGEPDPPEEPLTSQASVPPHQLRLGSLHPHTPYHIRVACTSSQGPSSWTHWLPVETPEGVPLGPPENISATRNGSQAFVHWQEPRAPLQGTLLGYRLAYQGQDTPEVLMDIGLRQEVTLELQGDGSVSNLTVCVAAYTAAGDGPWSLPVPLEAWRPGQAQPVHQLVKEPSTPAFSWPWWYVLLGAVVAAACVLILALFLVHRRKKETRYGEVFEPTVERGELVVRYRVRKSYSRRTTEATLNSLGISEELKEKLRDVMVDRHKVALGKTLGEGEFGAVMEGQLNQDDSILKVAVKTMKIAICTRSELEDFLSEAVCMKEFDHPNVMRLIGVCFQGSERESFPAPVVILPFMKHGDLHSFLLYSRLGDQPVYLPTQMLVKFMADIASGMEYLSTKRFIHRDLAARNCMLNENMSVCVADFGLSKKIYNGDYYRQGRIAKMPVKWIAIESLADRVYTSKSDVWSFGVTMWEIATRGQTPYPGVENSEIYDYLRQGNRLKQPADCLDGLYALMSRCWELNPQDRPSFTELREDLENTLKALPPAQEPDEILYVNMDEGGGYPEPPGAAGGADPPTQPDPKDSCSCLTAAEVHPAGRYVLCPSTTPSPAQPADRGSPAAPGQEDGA
Procedure: A-172 glioblastoma cells (ATCC #CRL-1620) were seeded at 2.5×10^5 cells/well onto 24-well plates (Greiner #662165), in DMEM (Thermo Fisher #11995-040) containing 10% FBS (Thermo Fisher #26140-079), 1% MEM NEAA (Thermo Fisher #11140-050), 1% GlutaMax (Thermo Fisher #35050-061), and 1% Penicillin Streptomycin (Thermo Fisher #15140-122). A-172 cells were incubated at 37° C., 5% CO2 for 24 h and then starved for 24 h in serum-free medium. Test compounds were serially diluted to produce an 8-point dose curve in fresh serum-free medium to a final concentration of 0.3% DMSO (vehicle) and added to the cells and incubated for 1 h. Cells were then stimulated with 1 μg/mL recombinant human Gas6 (R&D Systems #885-GSB-500) for 15 min, washed with cold PBS, and immediately lysed with 150 μL of cold 1× lysis buffer [20 mM Tris, 137 mM sodium chloride, 2 mM EDTA, 10% glycerol, 1% NP-40 alternative, 1 mM activated sodium orthovanadate, 1 mM PefaBloc SC (Sigma-Aldrich #11429868001), protease/phosphatase inhibitor tablet (Thermo Fisher #A32959)]. Lysates were collected and 100 μL/well added into the human phospho-AXL DuoSet IC ELISA (R&D Systems #DYC2228-2). Assay was performed according to manufacturer's instructions and sample phospho-AXL concentrations were extrapolated using human phospho-AXL control (R&D Systems #841645) as a standard. Positive control wells (100% activity) contained Gas6-stimulated, DMSO-treated cell lysates. Negative control wells (0% activity) contained Gas6-stimulated, reference inhibitor-treated cell lysates. IC50 values were calculated by nonlinear regression analysis using a 4-parameter logistic curve fit in ActivityBase XE (IDBS).

SMILES | IC50
COc1cc2nccc(Oc3ccc(NC(=O)c4ncc(C)n(-c5ccc(F)cn5)c4=O)cc3F)c2nc1OC [Compound 219, N-[4-[(6,7-Dimethoxy-1,5-naphthyridin-4-yl)oxy]-3-fluorophenyl]-4-(5-fluoropyridin-2-yl)-5-methyl-3-oxopyrazine-2-carboxamide] | ≤ 100 nM
Cc1ccc(C(=O)Nc2ccc(Oc3ccnc4cnc(Cl)cc34)c(F)c2)c(=O)n1-c1ccc(F)cn1 [Compound 54A, N-[4-[(6-Chloro-1,7-naphthyridin-4-yl)oxy]-3-fluorophenyl]-1-(5-fluoropyridin-2-yl)-6-methyl-2-oxopyridine-3-carboxamide] | 100 to 300 nM
COc1cc2nccc(Oc3ccc(NC(=O)c4c(C)n(C)c(C)c(-c5cc6ccccc6o5)c4=O)cc3F)c2nc1OC [Compound 261, 5-(1-Benzofuran-2-yl)-N-[4-[(6,7-dimethoxy-1,5-naphthyridin-4-yl)oxy]-3-fluorophenyl]-1,2,6-trimethyl-4-oxopyridine-3-carboxamide] | ≤ 100 nM
COc1cc2nccc(Oc3ccc(NC(=O)c4ccc(C)n(-c5ccc(F)c(C)n5)c4=O)cc3F)c2nc1OC [Compound 227, N-[4-[(6,7-Dimethoxy-1,5-naphthyridin-4-yl)oxy]-3-fluorophenyl]-1-(5-fluoro-6-methylpyridin-2-yl)-6-methyl-2-oxopyridine-3-carboxamide hydrochloride] | ≤ 100 nM
CCOc1ccn(-c2ccc(F)cn2)c(=O)c1C(=O)Nc1ccc(Oc2ccnc3cc(OC)c(OC)nc23)cc1 [Compound 244, N-[4-[(6,7-Dimethoxy-1,5-naphthyridin-4-yl)oxy]phenyl]-4-ethoxy-1-(5-fluoropyridin-2-yl)-2-oxopyridine-3-carboxamide] | ≤ 100 nM
COc1cc2nccc(Oc3ccc(NC(=O)c4c(C)n(C)cc(-c5ccc(F)cn5)c4=O)cc3)c2nc1OC [Compound 72, N-[4-[(6,7-Dimethoxy-1,5-naphthyridin-4-yl)oxy]phenyl]-5-(5-fluoropyridin-2-yl)-1,2-dimethyl-4-oxopyridine-3-carboxamide] | ≤ 100 nM
COc1cc2nccc(Oc3ccc(NC(=O)c4cccn(-c5ccnc(O)c5)c4=O)cc3F)c2nc1OC [Compound 248, N-[4-[(6,7-Dimethoxy-1,5-naphthyridin-4-yl)oxy]-3-fluorophenyl]-1-(2-hydroxypyridin-4-yl)-2-oxopyridine-3-carboxamide hydrochloride] | 300 to 1000 nM
COc1cc2nccc(Oc3ccc(NC(=O)c4c5n(cc(-c6cccs6)c4=O)CCOC5)cc3F)c2nc1OC [Compound 309, N-[4-[(6,7-Dimethoxy-1,5-naphthyridin-4-yl)oxy]-3-fluorophenyl]-8-oxo-7-thiophen-2-yl-3,4-dihydro-1H-pyrido[2,1-c][1,4]oxazine-9-carboxamide] | ≤ 100 nM
COc1cnc2c(Oc3ccc(NC(=O)c4cc(C(C)=O)c(C)n(-c5ccoc5)c4=O)cc3F)ccnc2c1 [Compound 240, 5-Acetyl-N-[3-fluoro-4-[(7-methoxy-1,5-naphthyridin-4-yl)oxy]phenyl]-1-(furan-3-yl)-6-methyl-2-oxopyridine-3-carboxamide] | ≤ 100 nM

More lines, now with the values ahead:

IC50 | SMILES
≤ 100 nM | COc1cc2nccc(Oc3ccc(NC(=O)c4cccn(-c5ccc(F)cn5)c4=O)cc3F)c2nc1OC [Compound 42, N-[4-[(6,7-Dimethoxy-1,5-naphthyridin-4-yl)oxy]-3-fluorophenyl]-1-(5-fluoropyridin-2-yl)-2-oxopyridine-3-carboxamide]
≤ 100 nM | COc1cc2nccc(Oc3ccc(NC(=O)c4cn(C)c(C)c(-c5ccc(F)cn5)c4=O)cc3)c2nc1OC [Compound 86, N-[4-[(6,7-Dimethoxy-1,5-naphthyridin-4-yl)oxy]phenyl]-5-(5-fluoropyridin-2-yl)-1,6-dimethyl-4-oxopyridine-3-carboxamide]
≤ 100 nM | COc1cnc2c(Oc3ccc(NC(=O)c4c(C)nc(C)c(-c5ccc(F)cn5)c4O)cc3F)ccnc2c1 [Compound 217, N-[3-Fluoro-4-[(7-methoxy-1,5-naphthyridin-4-yl)oxy]phenyl]-5-(5-fluoropyridin-2-yl)-4-hydroxy-2,6-dimethylpyridine-3-carboxamide]
≤ 100 nM | COc1cc2nccc(Oc3ccc(NC(=O)c4c5n(cc(-c6ccoc6)c4=O)CCOC5)cc3)c2nc1OC [Compound 310, N-[4-[(6,7-Dimethoxy-1,5-naphthyridin-4-yl)oxy]phenyl]-7-(furan-3-yl)-8-oxo-3,4-dihydro-1H-pyrido[2,1-c][1,4]oxazine-9-carboxamide]
≤ 100 nM | CCc1c(C(=O)Nc2ccc(Oc3ccnc4cc(OC)c(OC)nc34)c(F)c2)c(=O)c(-c2ccco2)c(C)n1C [Compound 324, N-[4-[(6,7-Dimethoxy-1,5-naphthyridin-4-yl)oxy]-3-fluorophenyl]-2-ethyl-5-(furan-2-yl)-1,6-dimethyl-4-oxopyridine-3-carboxamide]
≤ 100 nM | COc1cc2nccc(Oc3ccc(NC(=O)c4c5n(cc(-c6cc(C)cs6)c4=O)CCOC5)cc3)c2nc1OC [Compound 303, N-[4-[(6,7-Dimethoxy-1,5-naphthyridin-4-yl)oxy]phenyl]-7-(4-methylthiophen-2-yl)-8-oxo-3,4-dihydro-1H-pyrido[2,1-c][1,4]oxazine-9-carboxamide]
≤ 100 nM | COc1cc2nccc(Oc3ccc(NC(=O)c4nnc(C)c(-c5ccc(F)cn5)c4OC)cc3F)c2nc1OC [Compound 215, N-[4-[(6,7-Dimethoxy-1,5-naphthyridin-4-yl)oxy]-3-fluorophenyl]-5-(5-fluoropyridin-2-yl)-4-methoxy-6-methylpyridazine-3-carboxamide]

— patent US20230151003A1, “COMPOUNDS AND METHODS OF USE” (Exelixis, Inc., priority 2020, published 2023)
